Holding throughout (format): functional
For assay [1], the system named is Streptococcus pyogenes. The assay can be described thus: Antimicrobial activity against ciprofloxacin-nonsusceptible Streptococcus pyogenes isolates assessed as resistant isolates by agar dilution method. For orientation: Agar dilution tests growth on a series of plates holding different concentrations.
Assay [2] concerns Streptococcus pyogenes. Nature of the assay: Antimicrobial activity against ciprofloxacin-nonsusceptible Streptococcus pyogenes isolates by agar dilution method.
Assay [3] relates to Streptococcus pyogenes. The assay can be described thus: Antimicrobial activity against ciprofloxacin-nonsusceptible Streptococcus pyogenes isolates assessed as susceptible isolates by agar dilution method.
The subject of assay [4] is Streptococcus pyogenes. The assay can be described thus: Antimicrobial activity against ciprofloxacin-nonsusceptible Streptococcus pyogenes isolates assessed as intermediate resistant isolates by agar dilution method.
For assay [5], the system named is Streptococcus pyogenes. Nature of the assay: Antimicrobial activity against ciprofloxacin-nonsusceptible, K PFGE pattern, emm5 type Streptococcus pyogenes with ST99 sequence type, ParC D83G isolated from oropharyngeal colonization.
In assay [6] the test system is Streptococcus pyogenes. Nature of the assay: Antimicrobial activity against ciprofloxacin-nonsusceptible, DY PFGE pattern, emm6 type Streptococcus pyogenes with ST382 sequence type, ParC S79A mutant isolated from oropharyngeal colonization.
Assay [7] has as its system Streptococcus pyogenes. The assay can be described thus: Antimicrobial activity against ciprofloxacin-nonsusceptible, BT PFGE pattern, emm28 type Streptococcus pyogenes with ST52 sequence type, ParC D83G mutant isolated from skin/soft tissue infection.
For assay [8], the system named is Streptococcus pyogenes. The assay can be described thus: Antimicrobial activity against ciprofloxacin-nonsusceptible, AD PFGE pattern, […] sequence type, ParC S79A mutant isolated from oropharyngeal colonization and onsillitis/pharyngitis.
The test system of assay [9] is Streptococcus pyogenes. Nature of the assay: Antimicrobial activity against ciprofloxacin-nonsusceptible, AM PFGE pattern, emm6 type Streptococcus pyogenes with ST382 sequence type, ParC S79A mutant isolated from oropharyngeal colonization.
Assay [10] deals with Streptococcus pyogenes. Nature of the assay: Antimicrobial activity against ciprofloxacin-nonsusceptible, AD PFGE pattern, […] sequence type, ParC S79A mutant isolated from oropharyngeal colonization.
Assay [11] has as its system Streptococcus pyogenes. The assay can be described thus: Antimicrobial activity against ciprofloxacin-nonsusceptible, DX PFGE pattern, emm6 type Streptococcus pyogenes with ST382 sequence type, ParC S79A mutant isolated from oropharyngeal colonization.
The test system of assay [12] is Streptococcus pyogenes. Nature of the assay: Antimicrobial activity against ciprofloxacin-nonsusceptible, CJ PFGE pattern, emm89 type Streptococcus pyogenes with ST101 sequence type isolated from tonsillitis/pharyngitis.
The test system of assay [13] is Streptococcus pyogenes. Nature of the assay: Antimicrobial activity against ciprofloxacin-nonsusceptible, AD PFGE pattern, emm6 type Streptococcus pyogenes with ST382 sequence type, ParC S79A mutant isolated from oropharyngeal colonization, tonsillitis/pharyngitis and skin/soft tissue infection.

≈ marks a conversion by molar mass, not a printed value.

Take `CC1(C)S[C@@H]2[C@H](NC(=O)[C@H](N)c3ccccc3)C(=O)N2[C@H]1C(=O)O` [AMPICILLIN]: in [1], the Activity worked out at 0%. Further, in assay [2], the MIC is no more than 0.25 µg/mL, the MIC50 was no more than 0.25 µg/mL and the MIC90 was no more than 0.25 µg/mL. In [3], the Activity is given as 100%. Further, the Activity in [4] is given as 0%.
On to `CO/N=C(\C(=O)N[C@@H]1C(=O)N2C(C(=O)O)=C(COC(C)=O)CS[C@H]12)c1csc(N)n1` [CEFOTAXIME], for which the Activity in assay [1] is recorded as 0%. In [2], the MIC was no more than 0.06 µg/mL, the MIC50 was no more than 0.06 µg/mL and the MIC90 was no more than 0.06 µg/mL. The Activity in assay [3] was found to be 100%. Also, in assay [4], the Activity was found to be 0%.
Turning to `O=C(O)c1cn(C2CC2)c2cc(N3CCNCC3)c(F)cc2c1=O` [CIPROFLOXACIN], the MIC in [2] turned out to be 2 µg/mL (≈ 6.04 µM); in assay [5], 2 µg/mL (≈ 6.04 µM); in assay [6], 4 µg/mL (≈ 12.1 µM); in [7], 2 µg/mL (≈ 6.04 µM); in assay [8], 2 µg/mL (≈ 6.04 µM); in [9], 2 µg/mL (≈ 6.04 µM). Also, the MIC in [10] stood at 4 µg/mL (≈ 12.1 µM); in assay [11], 2 µg/mL (≈ 6.04 µM); in assay [12] it was 2 µg/mL (≈ 6.04 µM); in [13], 2 µg/mL (≈ 6.04 µM).
On to `CCC[C@@H]1C[C@@H](C(=O)N[C@@H]([C@H]2O[C@H](SC)[C@H](O)[C@@H](O)[C@H]2O)[C@H](C)Cl)N(C)C1` [CLINDAMYCIN], for which the Activity in assay [1] is reported as 1.5%. Moreover, in [2], the MIC was no more than 0.25 µg/mL, the MIC50 was no more than 0.25 µg/mL and the MIC90 is no more than 0.25 µg/mL. Besides, the Activity in assay [3] was found to be 98.5%. Moreover, the Activity in assay [4] worked out at 0%.
Take `CC[C@H]1OC(=O)[C@H](C)[C@@H](O[C@H]2C[C@@](C)(OC)[C@@H](O)[C@H](C)O2)[C@H](C)[C@@H](O[C@@H]2O[C@H](C)C[C@H](N(C)C)[C@H]2O)[C@](C)(O)C[C@@H](C)C(=O)[C@H](C)[C@@H](O)[C@]1(C)O` [ERYTHROMYCIN]: the Activity in assay [1] is on record as 1.5%. Further, in assay [2], the MIC was no more than 0.25 µg/mL, the MIC50 was no more than 0.25 µg/mL and the MIC90 is no more than 0.25 µg/mL. Further, the Activity in assay [3] came out at 98.5%. In addition, the Activity in [4] was found to be 0%.
As to `C[C@H]1COc2c(N3CCN(C)CC3)c(F)cc3c(=O)c(C(=O)O)cn1c23.C[C@H]1COc2c(N3CCN(C)CC3)c(F)cc3c(=O)c(C(=O)O)cn1c23.O` [LEVOFLOXACIN], the Activity in [1] is on record as 0%; in assay [3], 92.4%; in assay [4], 7.6%. Also, the MIC in assay [2], in assay [5], in assay [6], in assay [7], in assay [8] and in [9] was 2 µg/mL in each case. Also, the minimal inhibitory concentration (MIC) in assay [10] was determined as 4 µg/mL; in assay [11], 2 µg/mL; in assay [12], 2 µg/mL; in [13], 2 µg/mL. Further, the MIC50 in assay [2] amounted to 2 µg/mL. Besides, the MIC90 in assay [2] turned out to be 2 µg/mL.
In the case of `COc1c(N2C[C@@H]3CCCN[C@@H]3C2)c(F)cc2c(=O)c(C(=O)O)cn(C3CC3)c12` [MOXIFLOXACIN], the MIC in [2] is no more than 0.25 µg/mL; in [5], 0.5 µg/mL (≈ 1.25 µM); in [6] it was 0.5 µg/mL (≈ 1.25 µM); in [8], 0.5 µg/mL (≈ 1.25 µM); in [9], 0.5 µg/mL (≈ 1.25 µM); in assay [10], 1 µg/mL (≈ 2.49 µM). Further, the MIC in assay [11] and in [12] was 0.5 µg/mL (≈ 1.25 µM) each time. This compound registered an MIC50 in assay [2] of 0.5 µg/mL (≈ 1.25 µM). Further, in assay [2], the MIC90 worked out at 0.5 µg/mL (≈ 1.25 µM).
For `CC1(C)S[C@@H]2[C@H](NC(=O)Cc3ccccc3)C(=O)N2[C@H]1C(=O)O` [PENICILLIN G], in assay [1], the Activity is 0%. Besides, in [2], the MIC was no more than 0.03 µg/mL, the MIC50 was no more than 0.03 µg/mL and the MIC90 was no more than 0.03 µg/mL. In addition, the Activity in assay [3] came to 100%. Further, the Activity in assay [4] was 0%.
Regarding `CN(C)[C@@H]1C(O)=C(C(N)=O)C(=O)[C@@]2(O)C(O)=C3C(=O)c4c(O)cccc4[C@@](C)(O)[C@H]3C[C@@H]12` [TETRACYCLINE], the Activity in assay [1] came out at 1.5%. In addition, in [2], the MIC is no more than 2 µg/mL, the MIC50 is no more than 2 µg/mL and the MIC90 is no more than 2 µg/mL. Also, the Activity in [3] was found to be 98.5%. Moreover, the Activity in assay [4] came to 0%.
In assay [2], `CN(C)c1cc(NC(=O)CNC(C)(C)C)c(O)c2c1C[C@H]1C[C@H]3[C@H](N(C)C)C(O)=C(C(N)=O)C(=O)[C@@]3(O)C(O)=C1C2=O` [TIGECYCLINE] returned a minimal inhibitory concentration (MIC) of 0.025 µg/mL (≈ 0.0427 µM).
As to `CN[C@H](CC(C)C)C(=O)N[C@H]1C(=O)N[C@@H](CC(N)=O)C(=O)N[C@H]2C(=O)N[C@H]3C(=O)N[C@H](C(=O)N[C@H](C(=O)O)c4cc(O)cc(O)c4-c4cc3ccc4O)[C@H](O)c3ccc(c(Cl)c3)Oc3cc2cc(c3O[C@@H]2O[C@H](CO)[C@@H](O)[C@H](O)[C@H]2O[C@H]2C[C@](C)(N)[C@H](O)[C@H](C)O2)Oc2ccc(cc2Cl)[C@H]1O` [VANCOMYCIN], the Activity in assay [1] amounted to 0%. For the same compound, in assay [2], the MIC was no more than 0.25 µg/mL, the MIC50 is 0.5 µg/mL (≈ 0.345 µM) and the MIC90 stood at 0.5 µg/mL (≈ 0.345 µM). Further, the Activity in [3] is 100%. Also, in assay [4], the Activity turned out to be 0%.

The MIC is the smallest concentration in the dilution series that meets the test's criterion for growth inhibition. By MIC50 is commonly meant an inhibitory concentration at the 50% level, which refers to growth in some studies and to a panel of isolates in others. Usually MIC90 stands for the lowest concentration that inhibits either 90% of growth or 90% of the strains tested, depending on the study.

Source of the values: ChEMBL document CHEMBL1275587, “Emergence of ciprofloxacin-nonsusceptible Streptococcus pyogenes isolates from healthy children and pediatric patients in Portugal” (2010).
